{
  "source": "patent US6030960A",
  "about": "“Method of treating hepatitis virus infections” (priority 1998, dated 2000)",
  "assay_type_in_all_cases": "cell-based",
  "key": {"[1]": {"assay": "Cytotoxicity of alkyl lipids, neutral red dye uptake (Table 1)", "conditions": "human, hep-g2 cells", "description": "(§1) Initially, evaluations of the alkyl lipids were done to determine whether the compounds were cytotoxic to the cells at concentrations having anti-HBV activity. The assay methodology is szt forth in Korba and Germ, Antiviral Res., 19, 55-70 (1992), incorporated by reference herein. Briefly, these cell cytotoxicity evaluations were done in 96-well plates seeded with HEP-G2 cell monolayers. The hepatoblastoma cell line HEP-G2 transfected with a plasmid carrying the gene that confers resistance to […] and four 5'-3' tandem copies of the Hepatitis B virus genome was obtained from Dr. George Acs. Proc. Natl. Acad. Sci. USA, 84, 1005-1009 (1987). Serial concentrations of compound were added to the RPMI-1640 growth medium and the growth medium was added to the 96-well plates containing the cell monolayers. The cells were incubated for a total of nine days at 37° C. The compound-containing medium was periodically replaced. Each compound was tested at four serial concentrations in triplicate. After nine days of treatment and incubation, 0.01% neutral red dye (Sigma, Inc.) was added to the overlay medium. Cell cytotoxicity was quantitated by measuring the average A510. Values in Table 1 represent the percentage of average A510 values (±standard deviation) relative to nine non-treated control wells."}, "[2]": {"test_system": "Hepatitis B virus", "assay": "Anti-hepatitis B virus activity in HEP-G2 cells persistently infected with HBV (Table 2)", "conditions": "Hepatitis B virus, HepG2, 216 h, 10 μM, 9 days treatment", "experimental": "HEP-G2 cells persistently infected with HBV were treated daily with fresh D-MEM containing 20% FBS and 10 μM compound. After 9 days incubation and treatment, the overlay medium was harvested to assay the quantity of Hepatitis B virus s antigen (HBsAg) and HBeAg by EIA (Abbott Laboratories). The overlay medium was diluted to levels of antigen in the linear range of the assay. Standard curves using dilutions of positive HBsAg and HBeAg controls were included in each assay. Virion DNA was assayed using the method set forth in Korba and Gerin, Antiviral Res., 19, 5,5-70 (1992), incorporated by reference herein. HBV DNA was extracted from the overlay medium containing virus particles and analyzed by a slot-blot hybridization technique using ^32 P-labelled 3.2 Kb Eco R1 HBV DNA fragment by comparisons to HBV standards present on nitrocellulose filters using an AMBIS beta scanner. EC90 values (90% effective concentration, i.e., drug concentration which induces a 90% decrease in the levels of HBV DNA replication intermediates in treated versus control cells) were calculated by linear regression analysis. The relative levels of HBsAg, HBeAg and virion DNA were calulated as a percentage of the average levels obtained from the untreated controls."}, "[3]": {"assay": "Cytotoxicity in HBV persistently infected human HEP G2 cells, neutral red dye uptake (Table 5)", "conditions": "human, hep-g2 cells, % of Control Neutral Red Dye Uptake", "description": "as §1\n(§2) An analysis was periormed to determine the cytotoxicity of the following compounds in human HEP-G2 cells persistently infected with HBV: CP-51, CP-49, CP-9, CP-126, lyso PAF and CP-7. 2'-3'-Dideoxycytidine (ddC) was used as a control in this cytotoxicity analysis. The toxicity analyses were performed in 96-well flat bottomed tissue culture plates following the same procedure set forth in Example 6 above. Each compound was tested at four concentrations, each in triplicate cultures. Uptake of neutral red dye was used to determine the relative level of toxicity. The absorbance of internalized dye at […] (A510) was used for the quantitative analysis.\n(§3) Values are presented as a percentage of the average A510 values (± standard deviations) in ninz separate cultures of untreated cells maintained on the same 96-well plate as the test compounds. The percentage of dye uptake in the nine control cultures was 100±1."}, "[4]": {"test_system": "HEP G2 cells persistently infected with HBV", "assay": "Cytotoxicity in HBV persistently infected human HEP G2 cells, neutral red dye uptake (Table 5)", "description": "as §1, §2, §3"}, "[5]": {"test_system": "Hepatitis B virus", "assay": "Effect of alkyl lipids on HBV replication in HBV persistently infected human HEP G2 cells (Table 6)", "conditions": "for Intracellular HBV DNA, Mono (episomal 3.2-3.8 Kb HBV genomes) / Intracellular HBV DNA, RI (replication intermediates): nine days", "experimental": "Cells were treated with a particular compound for nine days at 37° C. Analysis of intracellular HEIV DNA was done 24 hours following the ninth day of treatment. […] The levels of integrated HBV DNA in each cellular DNA preparation were used to calculate the levels of episomal 3.2-3.8 Kb HBV genomes (Mono) and HBV DNA replication intermediates (RI). A zero value indicates an undetectable level of HBV virion DNA. The sensitivity cut-off was 0.1 pg DNA/ml of culture medium."}, "[6]": {"test_system": "Hepatitis B virus", "assay": "Effect on synthesis of antigen markers in persistently infected human HEP G2 cell cultures (Table 7)", "conditions": "10 μM, nine days; for activity at 10 µM: Hepatitis B virus, HepG2, 216 h", "experimental": "Cells were treated with compound for nine days at 37° C. The overlay medium was harvested to measure levels of HBsAg, HBeAg and virion DNA. HBsAg and HBeAg were assayed by EIA (Abbott Laboratories). Virion DNA levels were measured as described in section B above."}, "[7]": {"conditions": "read-out: Relative Level of HBeAg"}, "[8]": {"conditions": "read-out: Relative Level of HBsAg"}, "[9]": {"conditions": "read-out: Relative Level of Virion DNA"}},
  "note": "Where “and” joins values, the source holds several entries; their conditions need not be identical. Identical values can stand only once.",
  "data": [
    {"smiles": "CCCCCCCCCCCCCCCCSCC(C[N+](C)(C)CCO)OC", "note": "(racemic) [CP-7, N-[rac-3-(hexadecylthio)-2-methoxy-1-propyl]-N,N-dimethyl-N-(2-hydroxyethyl) ammonium bromide]", "values": [
      {"measurement": "cytotoxicity at 216 h, 30 µM", "setting": "[1]", "result": 33, "unit": "%"},
      {"measurement": "viability at 216 h, 3 µM", "setting": "[1]", "result": "98 ± 2", "unit": "%"},
      {"measurement": "viability at 216 h, 10 µM", "setting": "[1]", "result": "102 ± 6", "unit": "%"},
      {"measurement": "viability at 216 h, 30 µM", "setting": "[1]", "result": "67 ± 3", "unit": "%"},
      {"measurement": "viability at 216 h, 100 µM", "setting": "[1]", "result": "24 ± 2", "unit": "%"},
      {"measurement": "activity at 10 µM", "setting": "[2]; [7]", "result": 43, "unit": "%"},
      {"measurement": "activity at 10 µM", "setting": "[2]; [8]", "result": 74, "unit": "%"},
      {"measurement": "activity at 10 µM", "setting": "[2]; [9]", "result": 10, "unit": "%"},
      {"measurement": "viability at 216 h, 3 µM", "setting": "[3]", "result": "98 ± 2", "unit": "%"},
      {"measurement": "viability at 216 h, 10 µM", "setting": "[3]", "result": "102 ± 6", "unit": "%"},
      {"measurement": "viability at 216 h, 30 µM", "setting": "[3]", "result": "67 ± 3", "unit": "%"},
      {"measurement": "viability at 216 h, 100 µM", "setting": "[3]", "result": "24 ± 2", "unit": "%"},
      {"measurement": "Cell toxicity (greater than 50% depression of dye uptake)", "setting": "[4]", "result": "did not occur"},
      {"measurement": "HBV Virion DNA", "setting": "[5]; 0.1 μM, Day 0", "result": "51 pg/ml Culture Medium and 77 pg/ml Culture Medium and 64 pg/ml Culture Medium"},
      {"measurement": "HBV Virion DNA", "setting": "[5]; 0.1 μM, Day 3", "result": "72 pg/ml Culture Medium and 75 pg/ml Culture Medium and 66 pg/ml Culture Medium and 51 pg/ml Culture Medium"},
      {"measurement": "HBV Virion DNA", "setting": "[5]; 0.1 μM, Day 6", "result": "58 pg/ml Culture Medium and 65 pg/ml Culture Medium and 98 pg/ml Culture Medium and 75 pg/ml Culture Medium"},
      {"measurement": "HBV Virion DNA", "setting": "[5]; 0.1 μM, Day 9", "result": "57 pg/ml Culture Medium and 89 pg/ml Culture Medium and 84 pg/ml Culture Medium and 76 pg/ml Culture Medium"},
      {"measurement": "Intracellular HBV DNA, Mono (episomal 3.2-3.8 Kb HBV genomes)", "setting": "[5]; 0.1 μM", "result": "2.5 pg/μg Cell DNA and 2.6 pg/μg Cell DNA and 2.8 pg/μg Cell DNA and 2.3 pg/μg Cell DNA"},
      {"measurement": "Intracellular HBV DNA, RI (replication intermediates)", "setting": "[5]; 0.1 μM", "result": "73 pg/μg Cell DNA and 62 pg/μg Cell DNA and 57 pg/μg Cell DNA and 76 pg/μg Cell DNA"},
      {"measurement": "HBV Virion DNA", "setting": "[5]; 1 μM, Day 0", "result": "53 pg/ml Culture Medium and 64 pg/ml Culture Medium and 54 pg/ml Culture Medium"},
      {"measurement": "HBV Virion DNA", "setting": "[5]; 1 μM, Day 3", "result": "56 pg/ml Culture Medium and 51 pg/ml Culture Medium and 66 pg/ml Culture Medium and 58 pg/ml Culture Medium"},
      {"measurement": "HBV Virion DNA", "setting": "[5]; 1 μM, Day 6", "result": "46 pg/ml Culture Medium and 52 pg/ml Culture Medium and 59 pg/ml Culture Medium"},
      {"measurement": "HBV Virion DNA", "setting": "[5]; 1 μM, Day 9", "result": "48 pg/ml Culture Medium and 44 pg/ml Culture Medium and 49 pg/ml Culture Medium and 41 pg/ml Culture Medium"},
      {"measurement": "Intracellular HBV DNA, Mono (episomal 3.2-3.8 Kb HBV genomes)", "setting": "[5]; 1 μM", "result": "2.7 pg/μg Cell DNA and 2.2 pg/μg Cell DNA and 2.3 pg/μg Cell DNA and 2.4 pg/μg Cell DNA"},
      {"measurement": "Intracellular HBV DNA, RI (replication intermediates)", "setting": "[5]; 1 μM", "result": "70 pg/μg Cell DNA and 75 pg/μg Cell DNA and 63 pg/μg Cell DNA and 68 pg/μg Cell DNA"},
      {"measurement": "HBV Virion DNA", "setting": "[5]; 10 μM, Day 0", "result": "49 pg/ml Culture Medium and 63 pg/ml Culture Medium and 70 pg/ml Culture Medium and 65 pg/ml Culture Medium"},
      {"measurement": "HBV Virion DNA", "setting": "[5]; 10 μM, Day 3", "result": "70 pg/ml Culture Medium and 64 pg/ml Culture Medium and 67 pg/ml Culture Medium and 59 pg/ml Culture Medium"},
      {"measurement": "HBV Virion DNA", "setting": "[5]; 10 μM, Day 6", "result": "35 pg/ml Culture Medium and 28 pg/ml Culture Medium and 33 pg/ml Culture Medium"},
      {"measurement": "HBV Virion DNA", "setting": "[5]; 10 μM, Day 9, 0 = undetectable, cut-off 0.1 pg DNA/ml", "result": "8 pg/ml Culture Medium and 9 pg/ml Culture Medium and 7 pg/ml Culture Medium"},
      {"measurement": "Intracellular HBV DNA, Mono (episomal 3.2-3.8 Kb HBV genomes)", "setting": "[5]; 10 μM", "result": "2.3 pg/μg Cell DNA and 2.6 pg/μg Cell DNA and 2.5 pg/μg Cell DNA"},
      {"measurement": "Intracellular HBV DNA, RI (replication intermediates)", "setting": "[5]; 10 μM", "result": "11 pg/μg Cell DNA and 13 pg/μg Cell DNA and 10 pg/μg Cell DNA and 14 pg/μg Cell DNA"},
      {"measurement": "Relative Level of HBeAg", "setting": "[6]; 12960 min", "result": "40 % of Untreated Control"},
      {"measurement": "Relative Level of HBsAg", "setting": "[6]; 12960 min", "result": "69 % of Untreated Control"},
      {"measurement": "Relative Level of Virion DNA", "setting": "[6]; 12960 min", "result": "10 % of Untreated Control"},
      {"measurement": "activity at 10 µM", "setting": "[6]; [7]", "result": 46, "unit": "%"},
      {"measurement": "activity at 10 µM", "setting": "[6]; [8]", "result": 79, "unit": "%"},
      {"measurement": "activity at 10 µM", "setting": "[6]; [9]", "result": 9, "unit": "%"}
    ]}
  ]
}
